Square brackets hold non-standard residues; d marks the D form. Peptide text beside a SMILES is read from it. * marks the point of attachment. X1 = CC(C)(O/N=C(\C(=O)N[C@@H]1C(=O)N2C(C(=O)[O-])=C(C[n+]3ccccc3)CS[C@H]12)c1csc(N)n1)C(=O)NCCCCCCN1C(=O)CC(*)C1=O; X2 = C[C@H]1[C@H](NC(=O)/C(=N\OC(C)(C)C(=O)NCCCCCCN2C(=O)CC(*)C2=O)c2csc(N)n2)C(=O)N1S(=O)(=O)O A value given as a limit tells only on which side of the number the result lay.

In publication PMC11672299, “Conjugation of Polycationic Peptides Extends the Efficacy Spectrum of β‐Lactam Antibiotics” (Advanced Science, 2024) one finds MIC data, which are given here for 17 molecules.

For one test, the system named is B. subtilis DSM 10. Kind of test: microbe, parasite or virus in culture. It is filed as cell-based. The following applies: B. subtilis DSM 10; median (n = 3). The method, then: The minimum inhibitory concentration (MIC) of the β‐lactam–peptide conjugates was determined by broth microdilution as previously described.^[ [17] ^] Briefly, in cation‐adjusted MHB II medium, a twofold serial dilution of the compounds was prepared in 96‐well round‐bottom polystyrene or polypropylene microtiter plates with each well containing 50 µL. The plates were inoculated with 50 µL bacterial suspension and the final inoculum, in a total volume of 100 µL, contained 5 × 10^5 CFU mL^−1. The microplates were incubated for 20 h at 37 ± 1 °C. The lowest concentration preventing visible bacterial growth was considered the MIC value. For susceptibility testing of combinations of β‐lactamase‐inhibitors with either a β‐lactam antibiotic or a β‐lactam–peptide conjugate, fixed concentrations of the inhibitors according to the EUCAST (European Committee on Antimicrobial Susceptibility Testing) guidelines (clavulanic acid = 2 mg L^−1, avibactam = 4 mg L^−1) were used.
As to `C[C@H]1[C@H](NC(=O)/C(=N\OC(C)(C)C(=O)NCCCCCCN2C(=O)CC(SC[C@H](NC(=O)[C@H](CCCNC(=N)N)NC(=O)[C@H](CCCNC(=N)N)NC(=O)[C@H](CCCNC(=N)N)NC(=O)[C@H](CCCNC(=N)N)NC(=O)[C@H](CCCNC(=N)N)NC(=O)[C@H](CCCNC(=N)N)NC(=O)[C@H](N)Cc3ccc(O)cc3)C(N)=O)C2=O)c2csc(N)n2)C(=O)N1S(=O)(=O)O` (some centres unmarked) [AZT-yR6] (H-[dY]RRRRRRC(X2)-NH2; N-terminus assumed), the MIC stood at 1 µg/mL.

The same test, now with this note: DSM 10, 20 h.
Take `CC1(C)S[C@@H]2[C@H](NC(=O)[C@H](NC(=O)C3CCC(CN4C(=O)CC(SC[C@H](NC(=O)[C@H](CCCNC(=N)N)NC(=O)[C@H](CCCNC(=N)N)NC(=O)[C@H](CCCNC(=N)N)NC(=O)[C@H](CCCNC(=N)N)NC(=O)[C@H](CCCNC(=N)N)NC(=O)[C@@H](N)CCCNC(=N)N)C(N)=O)C4=O)CC3)c3ccc(O)cc3)C(=O)N2[C@H]1C(=O)O` (some centres unmarked) [AMO-R6]: the MIC worked out at 0.06 µg/mL.

On to `C[C@H]1[C@H](NC(=O)/C(=N\OC(C)(C)C(=O)NCCCCCCN2C(=O)CC(SC[C@H](NC(=O)[C@H](CCCNC(=N)N)NC(=O)CNC(=O)[C@H](CCCNC(=N)N)NC(=O)CNC(=O)[C@H](CCCNC(=N)N)NC(=O)CN)C(N)=O)C2=O)c2csc(N)n2)C(=O)N1S(=O)(=O)O` (some centres unmarked) [AZT-(GR)3] (H-GRGRGRC(X2)-NH2; N-terminus assumed), for which the MIC came out at 1 µg/mL.

With `C[C@H]1[C@H](NC(=O)/C(=N\OC(C)(C)C(=O)NCCCCCCN2C(=O)CC(SC[C@H](NC(=O)[C@H](CCCNC(=N)N)NC(=O)[C@H](CCCCN)NC(=O)[C@H](CCCNC(=N)N)NC(=O)[C@H](CCCCN)NC(=O)[C@H](CCCNC(=N)N)NC(=O)[C@@H](N)CCCCN)C(N)=O)C2=O)c2csc(N)n2)C(=O)N1S(=O)(=O)O` (some centres unmarked) [AZT-(KR)3] (H-KRKRKRC(X2)-NH2; N-terminus assumed), the MIC was 0.06 µg/mL.

In the case of `C[C@H]1[C@H](NC(=O)/C(=N\OC(C)(C)C(=O)NCCCCCCN2C(=O)CC(SC[C@H](NC(=O)[C@H](CCC(=O)O)NC(=O)[C@H](CCC(=O)O)NC(=O)[C@H](CCC(=O)O)NC(=O)[C@H](CCC(=O)O)NC(=O)[C@H](CCC(=O)O)NC(=O)[C@@H](N)CCC(=O)O)C(N)=O)C2=O)c2csc(N)n2)C(=O)N1S(=O)(=O)O` (some centres unmarked) [AZT-E6], the MIC was more than 64 µg/mL.

Turning to `C[C@H]1[C@H](NC(=O)/C(=N\OC(C)(C)C(=O)NCCCCCCN2C(=O)CC(SC[C@H](NC(=O)CNC(=O)CNC(=O)CNC(=O)CNC(=O)CNC(=O)CN)C(N)=O)C2=O)c2csc(N)n2)C(=O)N1S(=O)(=O)O` (some centres unmarked) [AZT-G6] (H-GGGGGGC(X2)-NH2; N-terminus assumed), the MIC was 64 µg/mL.

As to `C[C@H]1[C@H](NC(=O)/C(=N\OC(C)(C)C(=O)NCCCCCCN2C(=O)CC(SC[C@H](NC(=O)[C@@H](N)CCCCN)C(N)=O)C2=O)c2csc(N)n2)C(=O)N1S(=O)(=O)O` (some centres unmarked) [AZT-K1], the MIC was determined as 16 µg/mL.

As to `C[C@H]1[C@H](NC(=O)/C(=N\OC(C)(C)C(=O)NCCCCCCN2C(=O)CC(SC[C@H](NC(=O)[C@H](CCCCN)NC(=O)[C@H](CCCCN)NC(=O)[C@@H](N)CCCCN)C(N)=O)C2=O)c2csc(N)n2)C(=O)N1S(=O)(=O)O` (some centres unmarked) [AZT-K3], the MIC came to 8 µg/mL.

Regarding `C[C@H]1[C@H](NC(=O)/C(=N\OC(C)(C)C(=O)NCCCCCCN2C(=O)CC(SC[C@H](NC(=O)[C@H](CCCCN)NC(=O)[C@H](CCCCN)NC(=O)[C@H](CCCCN)NC(=O)[C@H](CCCCN)NC(=O)[C@H](CCCCN)NC(=O)[C@@H](N)CCCCN)C(N)=O)C2=O)c2csc(N)n2)C(=O)N1S(=O)(=O)O` (some centres unmarked) [AZT-K6] (H-KKKKKKC(X2)-NH2; N-terminus assumed), the MIC worked out at 0.25 µg/mL.

For the molecule `C[C@H]1[C@H](NC(=O)/C(=N\OC(C)(C)C(=O)NCCCCCCN2C(=O)CC(SC[C@H](NC(=O)[C@H](CCCCN)NC(=O)[C@H](CCCCN)NC(=O)[C@H](CCCCN)NC(=O)[C@H](CCCCN)NC(=O)[C@H](CCCCN)NC(=O)[C@H](CCCCN)NC(=O)[C@H](CCCCN)NC(=O)[C@H](CCCCN)NC(=O)[C@@H](N)CCCCN)C(N)=O)C2=O)c2csc(N)n2)C(=O)N1S(=O)(=O)O` (some centres unmarked) [AZT-K9] (H-KKKKKKKKKC(X2)-NH2; N-terminus assumed), the MIC was determined as 0.1 µg/mL.

With `C[C@H]1[C@H](NC(=O)/C(=N\OC(C)(C)C(=O)NCCCCCCN2C(=O)CC(SC[C@H](NC(=O)[C@H](CCCCN)NC(=O)[C@H](CCCCN)NC(=O)[C@H](CCCCN)NC(=O)[C@H](CCCCN)NC(=O)[C@H](CCCCN)NC(=O)[C@H](CCCCN)NC(=O)[C@H](CCCCN)NC(=O)[C@H](CCCCN)NC(=O)[C@H](CCCCN)NC(=O)[C@H](CCCCN)NC(=O)[C@H](CCCCN)NC(=O)[C@@H](N)CCCCN)C(N)=O)C2=O)c2csc(N)n2)C(=O)N1S(=O)(=O)O` (some centres unmarked) [AZT-K12] (H-KKKKKKKKKKKKC(X2)-NH2; N-terminus assumed), the MIC is 0.06 µg/mL.

In the case of `C[C@H]1[C@H](NC(=O)/C(=N\OC(C)(C)C(=O)NCCCCCCN2C(=O)CC(SC[C@H](NC(=O)[C@@H](N)CCCNC(=N)N)C(N)=O)C2=O)c2csc(N)n2)C(=O)N1S(=O)(=O)O` (some centres unmarked) [AZT-R1], the MIC was determined as 16 µg/mL.

As for `C[C@H]1[C@H](NC(=O)/C(=N\OC(C)(C)C(=O)NCCCCCCN2C(=O)CC(SC[C@H](NC(=O)[C@H](CCCCN)NC(=O)[C@H](CCCCN)NC(=O)[C@H](CCCCN)NC(=O)[C@H](CCCNC(=N)N)NC(=O)[C@H](CCCNC(=N)N)NC(=O)[C@@H](N)CCCNC(=N)N)C(N)=O)C2=O)c2csc(N)n2)C(=O)N1S(=O)(=O)O` (some centres unmarked) [AZT-R3K3] (H-RRRKKKC(X2)-NH2; N-terminus assumed), the MIC was 0.06 µg/mL.

For `C[C@H]1[C@H](NC(=O)/C(=N\OC(C)(C)C(=O)NCCCCCCN2C(=O)CC(SC[C@H](NC(=O)[C@H](CCCNC(=N)N)NC(=O)[C@H](CCCNC(=N)N)NC(=O)[C@@H](N)CCCNC(=N)N)C(N)=O)C2=O)c2csc(N)n2)C(=O)N1S(=O)(=O)O` (some centres unmarked) [AZT-R3], the MIC is 1 µg/mL.

In the case of `C[C@H]1[C@H](NC(=O)/C(=N\OC(C)(C)C(=O)NCCCCCCN2C(=O)CC(SC[C@H](NC(=O)[C@H](CCCNC(=N)N)NC(=O)[C@H](CCCNC(=N)N)NC(=O)[C@H](CCCNC(=N)N)NC(=O)[C@H](CCCNC(=N)N)NC(=O)[C@H](CCCNC(=N)N)NC(=O)[C@H](CCCNC(=N)N)NC(=O)[C@H](CCCNC(=N)N)NC(=O)[C@H](CCCNC(=N)N)NC(=O)[C@@H](N)CCCNC(=N)N)C(N)=O)C2=O)c2csc(N)n2)C(=O)N1S(=O)(=O)O` (some centres unmarked) [AZT-R9], the MIC is 0.5 µg/mL.

Regarding `C[C@H]1[C@H](NC(=O)/C(=N\OC(C)(C)C(=O)NCCCCCCN2C(=O)CC(SC[C@H](NC(=O)[C@H](CCCNC(=N)N)NC(=O)[C@H](CCCNC(=N)N)NC(=O)[C@H](CCCNC(=N)N)NC(=O)[C@H](CCCNC(=N)N)NC(=O)[C@H](CCCNC(=N)N)NC(=O)[C@H](CCCNC(=N)N)NC(=O)[C@H](CCCNC(=N)N)NC(=O)[C@H](CCCNC(=N)N)NC(=O)[C@H](CCCNC(=N)N)NC(=O)[C@H](CCCNC(=N)N)NC(=O)[C@H](CCCNC(=N)N)NC(=O)[C@@H](N)CCCNC(=N)N)C(N)=O)C2=O)c2csc(N)n2)C(=O)N1S(=O)(=O)O` (some centres unmarked) [AZT-R12], the MIC stood at 1 µg/mL.

Consider `CC(C)(O/N=C(\C(=O)N[C@@H]1C(=O)N2C(C(=O)[O-])=C(C[n+]3ccccc3)CS[C@H]12)c1csc(N)n1)C(=O)NCCCCCCN1C(=O)CC(SC[C@H](NC(=O)[C@H](CCCNC(=N)N)NC(=O)CNC(=O)[C@H](CCCNC(=N)N)NC(=O)CNC(=O)[C@H](CCCNC(=N)N)NC(=O)CN)C(N)=O)C1=O` (some centres unmarked) [CTZ-(GR)3] (H-GRGRGRC(X1)-NH2; N-terminus assumed), for which the MIC was 0.06 µg/mL.
